Assay [1] concerns the target T1, hM1 (Homo sapiens, UniProt P11229).
T1 sequence (P11229 1-460): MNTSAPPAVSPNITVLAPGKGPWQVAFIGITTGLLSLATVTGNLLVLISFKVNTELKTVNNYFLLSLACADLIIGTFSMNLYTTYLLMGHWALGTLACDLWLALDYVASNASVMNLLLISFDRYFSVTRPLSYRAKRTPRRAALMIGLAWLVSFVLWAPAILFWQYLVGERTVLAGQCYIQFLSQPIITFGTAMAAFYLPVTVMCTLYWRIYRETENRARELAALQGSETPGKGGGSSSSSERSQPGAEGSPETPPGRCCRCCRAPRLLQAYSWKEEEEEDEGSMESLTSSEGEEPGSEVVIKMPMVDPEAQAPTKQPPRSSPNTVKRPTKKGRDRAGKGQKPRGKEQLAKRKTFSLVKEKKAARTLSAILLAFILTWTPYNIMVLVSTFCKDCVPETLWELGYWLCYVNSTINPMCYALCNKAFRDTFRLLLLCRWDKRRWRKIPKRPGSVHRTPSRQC
Description: whole-cell [3H]NMS competition binding. As to conditions: hM1, FlpIn CHO cells, mean (±SEM).

In assay [2] the target is T1, hM1. The experiment in a line: ERK1/2 phosphorylation (pERK1/2) assay. It counts as cell-based. The note with it: wildtype hM1.
A further assay has as its target D1 (Homo sapiens, UniProt P21728). Description: cAMP Glo-sensor assay, antagonist mode. The note with it: human D1, HEK293T cells, vs dopamine. It counts as cell-based. Here is the method:
HEK293T cells in 10 cm plates were transfected with 4 μg of Glosensor and 4 μg of DNA encoding the human dopamine D1 receptor. The next day, cells were harvested and plated in polylysine-coated 384-well plates (Greiner) at a density of 20 000 cells/well in DMEM containing 1% dFBS. The next day, media was aspirated from each well and replaced with 20 μL of assay buffer containing 4 mM luciferin. Then, 10 μL of drugs were added 30 min later, and plates were read after 15 min.
In the absence of C21 ([B] = 0), this equation becomes the standard four-parameter logistic equation for fitting agonist concentration–response data.

The next assay has as its system hM3Dq in LH-vGAT neurons. The experiment in a line: food intake, hM3Dq in LH-vGAT neurons. Format: in vivo, mice. As to conditions: 0.3, 1.0, 3.0 mg/kg.
In the next assay the target is 5-HT1D (Homo sapiens, UniProt P28221). The experiment in a line: NIMH PDSP radioligand binding, membranes. Here is the method:
(§1) Radioligand binding assays with membrane preparations to determine binding affinity were carried out as outlined before[540] and by the National Institute of Mental Health’s Psychoactive Drug Screening Program (NIMH PDSP) (https://pdsp.unc.edu/), Contract # HHSN-271–2013–00017-C. The NIMH PDSP is Directed by B.L.R. at the University of North Carolina at Chapel Hill, Chapel Hill, NC, and Project Officer Jamie Driscoll at NIMH, Bethesda, MD.

The next assay has as its target T2, Alpha 1B (Homo sapiens, UniProt P35368).
T2 construct: NIMH PDSP
T2 sequence (P35368 1-520): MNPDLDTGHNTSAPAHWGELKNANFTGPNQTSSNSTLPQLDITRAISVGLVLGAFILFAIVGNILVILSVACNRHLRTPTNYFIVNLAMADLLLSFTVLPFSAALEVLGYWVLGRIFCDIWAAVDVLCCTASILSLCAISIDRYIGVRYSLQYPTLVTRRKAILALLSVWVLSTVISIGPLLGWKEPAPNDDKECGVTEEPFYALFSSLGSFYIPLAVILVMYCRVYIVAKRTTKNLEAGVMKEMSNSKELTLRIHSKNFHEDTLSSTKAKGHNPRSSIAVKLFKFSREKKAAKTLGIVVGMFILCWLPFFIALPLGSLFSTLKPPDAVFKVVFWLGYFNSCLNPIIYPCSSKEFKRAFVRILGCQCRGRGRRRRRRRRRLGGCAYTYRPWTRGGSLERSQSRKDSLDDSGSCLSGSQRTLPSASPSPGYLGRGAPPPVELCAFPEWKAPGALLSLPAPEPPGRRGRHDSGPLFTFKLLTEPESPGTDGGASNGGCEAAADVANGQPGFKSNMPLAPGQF
The experiment in a line: NIMH PDSP radioligand binding, membranes. Here is the method: as §1

A further assay deals with CB1 (Homo sapiens, UniProt P21554). Description: NIMH PDSP radioligand binding, membranes. Here is the method:
as §1

In another assay the target is M4 (Homo sapiens, UniProt P08173). Description: NIMH PDSP radioligand binding, membranes. Here is the method:
as §1

The next assay addresses T3, hM1Dq (Homo sapiens, UniProt P11229, A196G/Y106C).
T3 sequence (P11229 1-460 Y106C/A196G): T1 sequence (P11229 1-460) with Y106C, A196G
Description: IP-One accumulation assay.

The target of a further assay is T4, hM4Di (Homo sapiens, UniProt P08173, A203G/Y113C).
T4 sequence (P08173 1-479 Y113C/A203G): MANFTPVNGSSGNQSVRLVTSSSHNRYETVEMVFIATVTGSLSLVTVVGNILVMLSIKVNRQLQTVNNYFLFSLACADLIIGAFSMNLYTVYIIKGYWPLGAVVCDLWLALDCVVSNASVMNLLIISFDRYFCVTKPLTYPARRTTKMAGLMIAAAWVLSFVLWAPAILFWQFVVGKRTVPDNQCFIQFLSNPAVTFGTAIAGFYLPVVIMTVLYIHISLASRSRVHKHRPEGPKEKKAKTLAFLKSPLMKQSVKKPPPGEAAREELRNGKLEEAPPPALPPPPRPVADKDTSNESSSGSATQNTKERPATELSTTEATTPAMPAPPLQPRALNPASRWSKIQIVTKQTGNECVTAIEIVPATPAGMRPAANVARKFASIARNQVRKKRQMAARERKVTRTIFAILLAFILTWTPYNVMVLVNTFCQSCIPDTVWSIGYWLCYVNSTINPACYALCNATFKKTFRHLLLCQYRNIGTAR
Description: whole-cell [3H]NMS competition binding.

The mark [3] stands for this setting: read-out: Ki #1-#5 (individual assays).

Changes are numbered by the printed parent chain. Several values for one entry are separate records, joined by “and”; a condition that tells them apart may be missing. Equal values may be shown once. Read-outs that look alike come from different tables or passages of the source.

M4, sequence (P08173 whole entry): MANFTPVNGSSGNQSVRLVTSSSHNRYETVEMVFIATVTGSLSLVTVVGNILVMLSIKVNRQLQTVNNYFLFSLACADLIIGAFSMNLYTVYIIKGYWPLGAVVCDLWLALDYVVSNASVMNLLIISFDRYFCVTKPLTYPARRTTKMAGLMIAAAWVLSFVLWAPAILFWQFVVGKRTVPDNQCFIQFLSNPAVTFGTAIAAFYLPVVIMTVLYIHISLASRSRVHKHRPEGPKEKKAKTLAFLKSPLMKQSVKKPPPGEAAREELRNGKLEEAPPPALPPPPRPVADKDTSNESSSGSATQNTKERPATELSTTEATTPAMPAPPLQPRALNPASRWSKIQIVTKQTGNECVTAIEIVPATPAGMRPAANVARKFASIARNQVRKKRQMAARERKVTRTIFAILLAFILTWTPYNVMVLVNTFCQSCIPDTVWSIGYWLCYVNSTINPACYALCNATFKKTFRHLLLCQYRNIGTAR
5-HT1D, sequence (P28221 whole entry, species assumed): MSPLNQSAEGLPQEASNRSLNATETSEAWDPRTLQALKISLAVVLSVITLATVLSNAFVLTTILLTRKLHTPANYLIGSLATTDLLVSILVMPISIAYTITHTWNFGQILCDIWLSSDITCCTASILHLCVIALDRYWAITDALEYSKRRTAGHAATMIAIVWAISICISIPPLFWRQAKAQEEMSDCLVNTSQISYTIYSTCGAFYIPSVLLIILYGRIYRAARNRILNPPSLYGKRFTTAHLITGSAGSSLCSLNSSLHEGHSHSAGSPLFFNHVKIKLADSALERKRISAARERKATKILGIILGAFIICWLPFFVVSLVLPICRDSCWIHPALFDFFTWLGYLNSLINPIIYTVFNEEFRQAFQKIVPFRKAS
CB1, sequence (P21554 whole entry, species assumed): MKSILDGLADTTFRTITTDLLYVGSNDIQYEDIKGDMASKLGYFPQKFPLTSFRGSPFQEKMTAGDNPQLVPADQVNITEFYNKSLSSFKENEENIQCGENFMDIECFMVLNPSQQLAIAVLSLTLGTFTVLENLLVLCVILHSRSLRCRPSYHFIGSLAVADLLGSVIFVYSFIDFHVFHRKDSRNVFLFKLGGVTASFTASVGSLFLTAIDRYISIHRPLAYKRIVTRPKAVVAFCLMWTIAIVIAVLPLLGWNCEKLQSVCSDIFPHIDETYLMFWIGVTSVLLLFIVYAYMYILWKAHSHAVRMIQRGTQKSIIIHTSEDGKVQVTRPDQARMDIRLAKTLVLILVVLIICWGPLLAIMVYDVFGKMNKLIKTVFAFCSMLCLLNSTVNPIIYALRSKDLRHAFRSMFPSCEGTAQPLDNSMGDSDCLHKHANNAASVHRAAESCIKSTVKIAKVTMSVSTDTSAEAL
D1, sequence (P21728 whole entry): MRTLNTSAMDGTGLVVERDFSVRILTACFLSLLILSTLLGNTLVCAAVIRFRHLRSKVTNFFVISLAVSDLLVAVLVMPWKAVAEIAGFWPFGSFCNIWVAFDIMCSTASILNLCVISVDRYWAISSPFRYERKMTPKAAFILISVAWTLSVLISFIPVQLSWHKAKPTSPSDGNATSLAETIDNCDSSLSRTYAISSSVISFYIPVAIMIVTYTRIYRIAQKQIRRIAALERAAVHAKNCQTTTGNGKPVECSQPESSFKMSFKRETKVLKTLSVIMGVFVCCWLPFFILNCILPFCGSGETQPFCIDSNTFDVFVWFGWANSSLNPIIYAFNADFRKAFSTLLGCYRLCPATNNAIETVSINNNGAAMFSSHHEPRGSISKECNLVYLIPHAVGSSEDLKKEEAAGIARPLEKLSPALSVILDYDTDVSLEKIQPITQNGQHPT

As for `c1ccc2c(c1)N=C(N1CCNCC1)c1ccccc1N2` [C21, 11-(1-piperazinyl)-5H-dibenzo[b,e][1,4]diazepine], the Ki was 1070 nM on hM1 [1]; 972 nM on 5-HT1D (read-out: Ki); 1190 nM and 785 nM and 983 nM on 5-HT1D (setting [3]); greater than 10000 nM on Alpha 1B (read-out: Ki); greater than 10000 nM at Alpha 1B (setting [3]); greater than 10000 nM at CB1 (read-out: Ki). The Ki was greater than 10000 nM on CB1 (setting [3]); 1880 nM on M4 (read-out: Ki); 1560 nM and 2440 nM and 3020 nM and 734 nM and 2800 nM on M4 (setting [3]); 178 nM at hM4Di. Moreover, the “agonist activity in pERK1/2 assay” value at hM1 [2] was “no agonist activity”. Besides, on D1, the “antagonist activity, cAMP assay” value was “antagonism”. Besides, in the assay with hM3Dq in LH-vGAT neurons, the food intake result was “drives feeding in a dose-dependent fashion”. Also, the “log Ki (individual assays)” value at Alpha 1B was less than 5. Moreover, at hM1Dq, a half-maximal response (EC50) required 1.23 nM. The “higher binding affinity at hM4Di than at wildtype hM4” value on hM4Di (hM4Di vs hM4) is greater than 10 fold.

A word on the Ki: it is the dissociation constant of the complex between target and ligand, obtained from inhibition or displacement. A word on the EC50: it is the concentration that produces a half-maximal response.

(Values after paper PMC6407913, “DREADD Agonist 21 Is an Effective Agonist for Muscarinic-Based DREADDs in Vitro and in Vivo” (ACS Pharmacology & Translational Science, 2018).)
